Reference: patent US12508280B2, “Formulations for improving gut health” (DSM IP ASSETS B.V., priority 2018, dated 2025)

Tests used:
[1] = system: fecal suspension from the selected donor; assay: Intestinal batch fermentation, SCFA production (first set); assay type: cell-based, human; settings: after 48 h fermentation, vs corresponding control
Method in brief: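 Test ingredients were added to modified nutritional medium inoculated with fresh donor fecal suspension. Incubation ran 48 h at 37° C, 90 rpm, anaerobic, with ethanol blanks and single repeats. SCFA were sampled at 0, 6, 24 and 48 h, diethyl ether-extracted and quantified by GC-FID against a 2-methyl hexanoic acid internal standard; molar sums were taken as unbranched, branched and total SCFA.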

[2] = system: Co-cultures of Caco-2 and HT29-MTX-E12 cells; assay: Barrier integrity, leaky gut model, basolateral stressor 5% EtOH; assay type: cell-based; settings: 0.2× dose, vs corresponding control; for Lucifer yellow, basolateral induction of leaky gut cellular model: 48 h fermentation samples; for TEER, basolateral induction of leaky gut cellular model: 48 h minus 0 h fermentation samples
Experimental: Since ethanol is known to have antimicrobial effects, two blanks for each type of stock solution were included. As a source of the microbial community, a freshly prepared fecal suspension from the selected donor was added to the reactors. […] All tests, except the blanks, were performed in single repetition, resulting in 40 independent incubations, as specified in Table 1. Incubation conditions of the pre-screening experiment and the final experiment were 48 h at 37° C., under shaking (90 rpm) and anaerobic conditions. […] Effluent samples were collected from each fermentation flask before (0 h fermentation) and after fermentation (48 h fermentation), sterilized by filtering through 0.22 μm filters and used for short chain fatty acids (SCFA), quantification of immunological biomarkers and in vitro analysis in cell culture systems.
Co-cultures of Caco-2 and HT29-MTX-E12 cells were used to assess the protective effect of the supernatants before (0 h) and after fermentation (48 h) for both sets of in vitro experiments above.
CaCo-2 ECACC 86010202 and HT29-MTX-E12 ECACC 12040401 cells (both from European Collection of Cell Cultures, Salisbury, UK) were both cultured at 37° C., in atmosphere of 5% CO2 in DMEM medium supplemented with 4.5 g/L D-Glucose, 4 mM L-Glutamine, 1 mM Sodium Pyruvate, 1% MEM Non-Essential Amino Acids, 50 μg/mL Gentamicin (Life Technologies Europe B.V., Zug, Switzerland) and 10% heat-inactivated FBS (Sigma-Aldrich, Buchs, Switzerland). Sub-confluent cells were trypsinized using 0.25% Trypsin/EDTA (Life Technologies Europe B.V., Zug, Switzerland) and passaged at a ratio of 1:5-1:10 twice a week. Cells between passages 55 and 85 were used for this study.
Cells were seeded at a density of 20000 cells/well in a 7:3 ratio (Caco-2:HT29-MTX-E12) in Corning HTS Transwell-24 system PET membranes, 0.4 μM pore size, cell growth area 0.33 cm2/well (Corning BV, Amsterdam, Netherlands) and cultured as described above. Media was changed every second to third day.
For both sets of in vitro experiments, the integrity of cell monolayers after the stressor test was evaluated by both TEER values and by measuring the transport of Lucifer yellow from apical to basolateral compartments (Leaky gut model). […] The inserts were rinsed twice with HBSS using a reservoir tray, 100 μl HBSS were then added to the apical site of the inserts and subsequently moved to new wells with fresh HBSS and allowed to equilibrate at 37° C. for 60 min in the incubator followed by TEER measurement to obtain baseline resistance readings. […]

[3] = system: Co-cultures of Caco-2 and HT29-MTX-E12 cells; assay: Barrier integrity, leaky gut model, apical stressor Rhamnolipids; assay type: cell-based; settings: vs corresponding control; for TEER, apical induction of leaky gut cellular model: 48 h minus 0 h fermentation samples; for Lucifer yellow, apical induction of leaky gut cellular model: 48 h fermentation samples
[4] = system: HT29 cells; assay: HT29 cell culture, quantification of immunological biomarkers; assay type: cell-based; settings: effluent from 24 h fermentation, vs corresponding control
[5] = system: caecum content metagenome; assay: Broiler feeding trial, cecal metagenomic analysis (KEGG and SEED functional genes); assay type: in vivo, chickens; settings: treated groups (B and C) vs control group (A)
Experimental: The DNA are being extracted from each sample of caecum content using a bead-beating procedure. Briefly, 0.25 g of cecal content are suspended in 1 ml lysis buffer (500 mM NaCl, 50 mM Tris-Cl, pH 8.0, 50 mM EDTA, 4% SDS) with MagNA Lyser Green Beads (Roche, Milan, Italy) and homogenized on the MagNA Lyser (Roche) for 25 sec at 6500 rpm. The samples are then heated at 70° C. for 15 min, followed by centrifugation to separate the DNA from the bacterial cellular debris. This process is repeated with a second 300 μl aliquot of lysis buffer. The samples are then subjected to 10 M v/v ammonium acetate (Sigma, Milan, Italy) precipitation, followed by isopropanol (Sigma) precipitation and a 70% ethanol (Carlo Erba, Milan, Italy) wash and re-suspended in 100 ul 1× Tris-EDTA (Sigma). The samples are then treated with DNase-free RNase (Roche) and incubated overnight at 4° C., before being processed through the QIAmp® DNA Stool Mini Kit (Qiagen, Milan, Italy) according to manufacturer's directions with some modifications. Samples are measured on a BioSpectrometer® (Eppendorf, Milan, Italy) to assess DNA quantity and quality. […]
Filtering and trimming of raw reads were performed using MGRast (MR) (mgrast.org) (Keegan et al., 2016) bioinformatics pipelines. […]

[6] = system: Pepsin, pancreatin, viscozyme; assay: In vitro enzymatic digestion with exogenous enzymes; assay type: biochemical
Experimental: Erlenmeyer flasks (100 mL total volume) contained 0.5 g of substrate alone or supplemented with the three eubiotics were incubated in duplicates for each treatment, to determine the in vitro enzymatic digestibility following the three-step method of Boisen and Fernandez (1997). The digestibility was determined with: • [1] Pepsin • [2] Pepsin+pancreatin • [3] Pepsin+pancreatin+viscozyme B. With Gastric Contents and Small Intestine Contents
For gas production, results were analyzed for each incubation time as a split-plot design, considering the donor pig as a block, the contents (fresh vs. frozen) as the main plot and the treatment as the subplot. The same design was used to analyze the results obtained from digestive contents (gastric vs. small intestine) as the main plot. In vitro enzymatic results were not statistically analyzed as there were no sources of experimental variability. Differences were considered significant when P<0.05, and a trend for significance was considered when 0.05 ? P<0.10 and, when significant, differences were compared by the Tukey t test at P<0.05.

## Vitamin E
[1]; 1× dose
  acetate production: increase acetate production
  propionate production: increase propionate production
  total SCFAs production: increase total SCFAs production
[1]; 5× dose
  acetate production: increase acetate production
[2]
  Lucifer yellow, basolateral induction of leaky gut cellular model: decrease Lucifer yellow
  TEER, basolateral induction of leaky gut cellular model: increase TEER
[3]; 0.2× dose
  TEER, apical induction of leaky gut cellular model: increase TEER
[3]; 1× dose
  Lucifer yellow, apical induction of leaky gut cellular model: decrease Lucifer yellow
  TEER, apical induction of leaky gut cellular model: increase TEER
[3]; 5× dose
  Lucifer yellow, apical induction of leaky gut cellular model: decrease Lucifer yellow
  TEER, apical induction of leaky gut cellular model: increase TEER
[4]; 0.2× dose
  IL-8 production by HT29 cells: increase IL-8 production
  MIP3A-CCL20 production by HT29 cells: increase MIP3A-CCL20 production
[4]; 1× dose
  IL-8 production by HT29 cells: increase IL-8 production
  MIP3A-CCL20 production by HT29 cells: increase MIP3A-CCL20 production
[4]; 5× dose
  GROa-CXCL1 production by HT29 cells: increase GROa-CXCL1 production
  IL-8 production by HT29 cells: increase IL-8 production
  MIP3A-CCL20 production by HT29 cells: increase MIP3A-CCL20 production

## Cc1cc2nc3c(=O)[nH]c(=O)nc-3n(C[C@H](O)[C@H](O)[C@H](O)CO)c2cc1C [Vitamin B2, riboflavin]
[1]; 5× dose
  butyrate production: increase butyrate production
[2]
  Lucifer yellow, basolateral induction of leaky gut cellular model: decrease Lucifer yellow
  TEER, basolateral induction of leaky gut cellular model: increase TEER
[3]; 0.2× dose
  Lucifer yellow, apical induction of leaky gut cellular model: decrease Lucifer yellow
  TEER, apical induction of leaky gut cellular model: increase TEER
[4]; 1× dose
  GROa-CXCL1 production by HT29 cells: increase GROa-CXCL1 production
  IL-8 production by HT29 cells: increase IL-8 production
[4]; 5× dose
  GROa-CXCL1 production by HT29 cells: increase GROa-CXCL1 production
  IL-8 production by HT29 cells: increase IL-8 production
[5]
  PCA of functional features (6361 features, 63 samples): clear visible separation
[6]
  substrate digestibility incubated in (P+Pancreatin) and/or (P+P+Viscozyme): no differences among treatments were observed
  substrate digestibility incubated in pepsin-HCl: higher than that of other treatments
